What was measured:
[1] = Plasma HMB by gas chromatography-mass spectrometry after HMB-FA ingestion and resistance exercise; type: in vivo, human; settings: 1 g HMB-FA 30 min prior to exercise, p<0.01
Text: Twenty resistance trained men (22.3±2.4 y, 1.8±0.1 m, […]) volunteered to participate in this study. Participants were randomly separated into one of two groups: ingestion of HMB free-acid (HMB-FA; n=10) or ingestion of placebo (PL; n=10). Following an explanation of all procedures, risks, and benefits, each participant gave his informed consent prior to participation in this study. The Institutional Review Board for the protection of human subjects of the University of Central Florida approved the research protocol. For inclusion in this study, participants were required to have a minimum of one year of resistance training experience, particularly in the squat exercise. […]
The investigation utilized a placebo-controlled, double-blind, randomized design. […] Total training volume, calculated as repetitions×load, was recorded for further analysis. […]
Plasma HMB was analyzed by Metabolic Technologies Inc. by gas chromatography-mass spectrometry with previously outlined methods to confirm HMB appearance in the plasma (17). Myoglobin concentration was determined via a Myoglobin ELISA kit (Calbiotec, Cat no: MG017C, Spring Valley, Calif., USA) and prepared per manufacturer's instructions. Determination of serum immunoreactivity values was determined using a BioTek Eon spectrophotometer (BioTek, Winooski, Vt., USA). […]

growth hormone = experiment: Growth hormone response to resistance exercise after HMB-FA ingestion (commercial kit); type: in vivo, human
Text: (§1) Twenty resistance trained men (22.3±2.4 y, 1.8±0.1 m, […]) volunteered to participate in this study. Participants were randomly separated into one of two groups: ingestion of HMB free-acid (HMB-FA; n=10) or ingestion of placebo (PL; n=10). Following an explanation of all procedures, risks, and benefits, each participant gave his informed consent prior to participation in this study. The Institutional Review Board for the protection of human subjects of the University of Central Florida approved the research protocol. For inclusion in this study, participants were required to have a minimum of one year of resistance training experience, particularly in the squat exercise. Participants were not permitted to use any additional nutritional supplements or medications while enrolled in this study. Screening for nutritional and hormonal supplements was accomplished via a health history questionnaire completed during participant recruitment.
The investigation utilized a placebo-controlled, double-blind, randomized design. Participants reported to the laboratory on two occasions. On the first visit (T1), participants were tested for their one-repetition maximum (1-RM) on the barbell back squat, dead lift, and barbell split squat exercises. Participants were instructed to refrain from any form of exercise for a minimum of 72 hours prior to the resistance training bout (T2). On T2, participants completed an intense lower-body resistance exercise session, which consisted of four sets of the barbell back squat, dead lift, and barbell split squat exercises. The barbell back squat exercise was performed with 80% of the participant's 1-RM and the dead lift and barbell split squat exercises were performed with 70% of the participant's 1-RM. Rest intervals were set at 90 s between each set and between exercises. […] Total training volume, calculated as repetitions×load, was recorded for further analysis. […]
(§2) Prior to analysis, all data were assessed to ensure normal distribution, homogeneity of variance, and sphericity. […]

[2] = in vivo; cited from earlier work
muscle damage = settings: initiated 30 min prior to an acute bout of exercise; cited from earlier work
[3] = system: insulin-like growth factor (IGF-1); experiment: Plasma IGF-1 response to resistance exercise after HMB-FA ingestion (commercial kit); type: in vivo, human
Text: as §1
The investigation utilized a placebo-controlled, double-blind, randomized design. Participants reported to the laboratory on two occasions. On the first visit (T1), participants were tested for their one-repetition maximum (1-RM) on the barbell back squat, dead lift, and barbell split squat exercises. Participants were instructed to refrain from any form of exercise for a minimum of 72 hours prior to the resistance training bout (T2). On T2, participants completed an intense lower-body resistance exercise session, which consisted of four sets of the barbell back squat, dead lift, and barbell split squat exercises. The barbell back squat exercise was performed with 80% of the participant's 1-RM and the dead lift and barbell split squat exercises were performed with 70% of the participant's 1-RM. Rest intervals were set at 90 s between each set and between exercises. Participants were encouraged to perform as many repetitions as possible up to 10 repetitions for each set. Total training volume, calculated as repetitions×load, was recorded for further analysis.
The HMB-FA supplement consisted of one gram of β-hydroxy-β-methylbutyrate in the free-acid form (Beta-TOR®, Metabolic Technologies Inc., Ames, Iowa), reverse osmosis water, de-bittering agent, flavor, stevia extract, and potassium carbonate. Each serving of placebo contained one gram of polydextrose and was identical to the HMB-FA supplement in appearance and taste. The HMB-FA and PL treatments were produced and supplied by Metabolic Technologies Inc. (Ames, Iowa). One serving of HMB-FA or PL was consumed 30 minutes prior to the exercise session. All HMB-FA and PL ingestion took place in the Human Performance Lab and was witnessed by one of the investigators. […]
as §2

testosterone = experiment: Plasma testosterone after HMB-FA ingestion and resistance exercise; type: in vivo, human; settings: acute ingestion and training session
Text: as §1
(§3) The investigation utilized a placebo-controlled, double-blind, randomized design. Participants reported to the laboratory on two occasions. […] Total training volume, calculated as repetitions×load, was recorded for further analysis. […]
as §2

muscle proteolysis = settings: isolated rat muscle, in vitro; cited from earlier work
[4] = after HMB is fed; cited from earlier work
insulin [5] = experiment: Serum insulin response to the exercise protocol after HMB ingestion; type: in vivo, human; settings: acute ingestion and training session
Text: as §1, §3, §2

insulin [6] = settings: HMB treated rats, prolonged supplementation; cited from earlier work
[7] = healthy young or old adults; cited from earlier work
[8] = AUC over PRE, IP, 30P, trapezoidal, p=0.02

Row | Structure (SMILES) | Plasma HMB concentrations ([1]; 30 min post-exercise (30P)) | Plasma HMB concentrations ([1]; immediately post-exercise (IP)) | Growth hormone concentration, elevation vs PL (growth hormone; 30P, p=0.100) | Growth hormone AUC vs PL (growth hormone; [8]) | Growth hormone concentration, elevation vs PL (growth hormone; IP, 1 g HMB-FA 30 min prior to exercise, p=0.021) | Absorption compared with CaHMB [2] | Tissue clearance compared with CaHMB [2] | Attenuating muscle damage and ameliorating inflammatory response compared with CaHMB (muscle damage) | IGF-1 concentration vs PL ([3]; 30P) | IGF-1 AUC vs PL [3, 8] | IGF-1 concentration vs PL ([3]; IP) | IGF-1 concentration vs PL ([3]; PRE (baseline), supplement given 15 min before the PRE blood draw, p=0.012) | Circulating testosterone levels (testosterone) | Inhibition of muscle proteolysis (muscle proteolysis) | Loss of HMB to urine [4] | Effect on the insulin response to the exercise protocol (insulin [5]) | Resting insulin concentrations (insulin [6]) | Side effects [7]
1 | CC(C)(O)CC(=O)O [HMB-FA, β-hydroxy-β-methylbutyric acid] | significantly elevated | significantly elevated | no difference between the groups | significantly higher GH response | significantly higher than PL | absorbed quicker | greater tissue clearance | more efficacious | No differences were observed between the groups | greater IGF-1 response | No differences were observed between the groups | elevated at baseline | – | – | – | – | – | –
2 | CC(C)(O)CC(=O)O [HMB, β-hydroxy-β-methylbutyrate] | – | – | – | – | – | – | – | – | – | – | – | – | no differences | potent inhibitor of muscle proteolysis | 20-50% | unable to demonstrate any effect | significant increases | no side effects
